Measured values published in patent US10442767B2 (priority 2012, dated 2019).

Assays:
Stability in microsomes = assay type: in vitro ADME, CD1 mouse; settings: mouse liver microsomes
Method: The stability of these drugs in mouse plasma and mouse liver microsomes was also tested. Liver microsomes contain large amounts of cytochrome P450 and can be used to estimate the metabolic stability of drugs.
study compounds were incubated at initial concentration of 1 μM with liver microsomes from CD1 mouse (0.04 mg/mL) in PBS in the presence or absence of enzyme cofactors (1.3 mM NADP^+, 3.3 mM MgCl2, 3.3 mM G6P and 1 U/ml G6PDH, 1 mM UDPGA and 4.7 μg/ml Alamethicin). After t=0, 20, 40 and 60 min, a sample was removed and the reaction was stopped by adding 1 volume of acetonitrile. The loss of compound was determined by LC-MS analysis comparing the amount of compound in the sample to the respective reference samples (without cofactors). To ensure that the assay is reliable, Propanolol and Verapamil were included as control compounds. […]
The Hill equation used to fit the data from the voltage-clamp and the optic nerve experiments was as follows: y=y0+(yf−y0)*x^n/(k^n+x^n); where n refers to the Hill coefficient (typically 1±0.1) and k refers to EC50 or IC50. y0 and yf refers to the origin and final ordinate values and were fixed at 1±0.1 or 0±0.1 depending on the experiment. […] The half-life (t1/2) in the stability and pharmacokinetic experiments was calculated by fitting the data to the equation Ct=C0*exp(−k*t) where C0=initial concentration, Ct=concentration at time t, and k=ln 2/t1/2. […]

C57Bl/6J mice = assay: In vivo effects (tremor, seizures) after intraperitoneal injection; set-up: species or system mouse; settings: i.p.; for Effect: N = 5
Method: A consequence of excessive K^+ channel blockage is the advent of seizures. 4-AP is known to cause seizures in mice at high doses.
At high doses, 4-AP causes tremors, muscle spasms and seizures.
10-week-old female C57Bl/6J mice were given an intraperitoneal injection of the drug under investigation and monitored continuously for 4 h. After 4 h no signs of drug effects could be observed. At least 72 h passed between injections to the same mice.

Shaker K^+ channel = biological target: T1, Shaker K^+ channel (Drosophila melanogaster, UniProt P08510); assay: Inhibition of K+ currents, cut-open oocyte voltage clamp; assay type: cell-based, Xenopus oocytes
T1 construct: injecting approximately 50 ng of WT Shaker cRNA (kit Ambion) into the oocytes; expressed in transfected cells; host or cells: Xenopus laevis oocytes (cRNA injection)
T1 sequence (P08510 whole entry): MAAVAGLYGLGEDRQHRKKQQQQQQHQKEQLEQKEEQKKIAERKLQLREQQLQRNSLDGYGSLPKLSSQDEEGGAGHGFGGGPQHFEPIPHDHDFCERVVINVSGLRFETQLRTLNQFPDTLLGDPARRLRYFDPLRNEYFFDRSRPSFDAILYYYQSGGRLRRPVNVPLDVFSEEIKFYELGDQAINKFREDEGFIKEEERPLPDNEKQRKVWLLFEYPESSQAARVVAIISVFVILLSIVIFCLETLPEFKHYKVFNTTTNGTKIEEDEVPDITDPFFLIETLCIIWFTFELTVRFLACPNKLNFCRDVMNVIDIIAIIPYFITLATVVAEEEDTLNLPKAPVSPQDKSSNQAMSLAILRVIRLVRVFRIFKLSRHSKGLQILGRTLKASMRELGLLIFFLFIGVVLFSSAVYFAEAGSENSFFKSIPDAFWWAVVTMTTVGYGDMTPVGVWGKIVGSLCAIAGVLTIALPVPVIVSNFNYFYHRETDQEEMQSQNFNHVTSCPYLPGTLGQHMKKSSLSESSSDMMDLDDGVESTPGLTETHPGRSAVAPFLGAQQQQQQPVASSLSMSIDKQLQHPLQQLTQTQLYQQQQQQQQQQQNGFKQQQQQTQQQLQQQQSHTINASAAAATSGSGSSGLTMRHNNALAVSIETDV
Method: Using the cut-open oocyte voltage clamp studies to screen compounds to determine their potency towards Kv1 cannels was previously described in Starace and Bezanilla et al. (2004).
For this experiment, Shaker K^+ channel from D. […] was chosen as the archetypical voltage gated K^+ channel that gives name to the family.
Electrophysiology studies are conducted according to the protocol by Stefani and Bezanilla (1998). Briefly, K^+ channel Shaker cRNA is injected into Xenopus oocytes 24 h after their surgical extraction from adult frogs. 1-5 days after injection channel currents are recorded using the cut-open voltage-clamp.
K^+ channel expression in Xenopus oocytes membranes was achieved by injecting approximately 50 ng of WT Shaker cRNA (kit Ambion) into the oocytes 24 h after surgical extraction from adult frogs and collagenase treatment. Injected oocytes were maintained in a standard oocytes solution (100 mM NaCl, 5 mM KCl, 2 mM CaCl2, and 10 mM Hepes at pH 7.5) at 16.5° C. and recordings were performed 1-3 days after injection.
K^+ currents were recorded from oocytes expressing Shaker K^+ channels using the cut-open voltage clamp technique as described by Stefani and Bezanilla. The internal solution was 120 mM KOH, 20 mM HEPES-methyl sulfonate (MES) pH 7.4, 2 mM EGTA. The external solution was 12 mM KOH, 105 mM N-methyl-D-glucamine-MES pH 7.4, 20 mM HEPES, 2 mM CaOH. […] After application, cells were voltage-clamped at least 5 min at 0 mV, then voltage-clamped at −80 mV for 1-2 min. K^+ currents were generated by applying series of 50 ms pulses from −70 mV to +40 mV in increments of 10 mV. […] Analysis of the traces was done using an in-house software. The half-maximal inhibitory concentration (IC50) for each drug was calculated by plotting the relative K^+ current vs. concentration and fitted to the Hill equation using the software Origin.
EC50=10^<log EC50>; where <log EC50>=average of log EC50 values from all experiments with the same drug. 95% C.I.=[Upper Limit . . . Lower Limit]; where U.L.=10^(log EC50+s.d.) and L.L.=10^(log EC50−s.d.). The half-life (t1/2) in the stability and pharmacokinetic experiments was calculated by fitting the data to the equation Ct=C0*exp(−k*t) where C0=initial concentration, Ct=concentration at time t, and k=ln 2/t1/2. Student t-test was used to compare results and P<0.05 was considered significant.

Nc1ccncc1F [3-F-4-AP, 3-fluoro-4-aminopyridine]
times more stable than 4-AP in microsomes (Stability in microsomes): 2.7 times | Effect (C57Bl/6J mice; 30 μmol/kg): Mouse quiet | Effect (C57Bl/6J mice; 60 μmol/kg): Mild tremor, mouse quiet | duration of effect (tremors, seizures or jerks) (C57Bl/6J mice; 90 μmol/kg): ~30 min | mice died of seizure (C57Bl/6J mice; 90 μmol/kg): 1 of 5 mice died of seizure | start of tremors and seizures post-injection (C57Bl/6J mice; 90 μmol/kg (highest dose)): 10 s | Effect (C57Bl/6J mice; 90 μmol/kg): Severe tremors and seizures that start | in vivo potency compared with 4-AP (C57Bl/6J mice; mice): very similar potency to that of 4-AP | affinity for K^+ channels compared with 4-AP (Shaker K^+ channel; cut-open oocyte voltage clamp (Example 2)): very similar affinity to 4-AP | IC50 (Shaker K^+ channel; relative K+ current at +20 mV, Xenopus oocytes, Hill fit, read-out: half-maximal inhibitory concentration (IC50)): 250 µM
